Laboratory results reported in patent US8481732B2 (Incyte Corporation, priority 2009, dated 2013).

Target: T1, histamine H4 receptor (Homo sapiens, UniProt Q9H3N8)
T1 construct: expressed in transfected cells; host or cells: HEK293SFM cells (membrane preparation)
Test: H4 Membrane Binding Assay (3H-Histamine displacement)
Details: membranes of recombinant HEK293SFM cells, 10 nM 3H-Histamine, 1.5 hr at room temperature
How it was run: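 Membranes from HEK293SFM cells expressing human H4 (also human H1–H3, mouse H4), prepared in ice-cold 50 mM Tris-HCl pH 7.5. [3H]-histamine displacement, nonspecific binding defined with 1000× unlabeled ligand. Bound radioactivity separated on PEI-treated GF/B filters and measured by liquid scintillation counting.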

T1 sequence (Q9H3N8 whole entry): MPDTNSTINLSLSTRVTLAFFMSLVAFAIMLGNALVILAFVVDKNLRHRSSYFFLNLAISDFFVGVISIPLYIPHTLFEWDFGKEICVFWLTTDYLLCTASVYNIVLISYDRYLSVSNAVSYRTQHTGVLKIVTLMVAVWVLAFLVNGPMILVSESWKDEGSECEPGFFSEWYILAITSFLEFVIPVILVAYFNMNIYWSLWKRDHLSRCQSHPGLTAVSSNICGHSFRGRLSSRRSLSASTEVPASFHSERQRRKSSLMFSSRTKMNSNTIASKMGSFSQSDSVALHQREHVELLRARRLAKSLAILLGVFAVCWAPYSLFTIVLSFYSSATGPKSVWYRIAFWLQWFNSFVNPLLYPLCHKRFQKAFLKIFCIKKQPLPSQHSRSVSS

SMILES	IC50
COC(=O)c1cccc(COc2cccc3c2CCN(C(=O)c2ccc4c(N5CCN(C)CC5)nc(N)nc4c2)C3)c1 [Example 209, Methyl 3-((2-(2-amino-4-(4-methylpiperazin-1-yl)quinazoline-7-carbonyl)-1,2,3,4-tetrahydroisoquinolin-5-yloxy)methyl)benzoate]	0.036 µM
CN1CCN(c2nc(N)nc3cc(C(=O)N4CCc5c(cccc5OCc5ccc(C#N)cc5)C4)ccc23)CC1 [Example 210, 4-((2-(2-Amino-4-(4-methylpiperazin-1-yl)quinazoline-7-carbonyl)-1,2,3,4-tetrahydroisoquinolin-5-yloxy)methyl)benzonitrile]	0.041 µM
COC(=O)c1ccc(COc2cccc3c2CCN(C(=O)c2ccc4c(N5CCN(C)CC5)nc(N)nc4c2)C3)cc1 [Example 211, Methyl 4-((2-(2-amino-4-(4-methylpiperazin-1-yl)quinazoline-7-carbonyl)-1,2,3,4-tetrahydroisoquinolin-5-yloxy)methyl)benzoate]	0.063 µM
